For orientation: Ki means a measure of affinity in units of concentration, obtained from inhibition or displacement. Read a high Ki as weaker binding.

The target in the assay is T1, LTD4 receptor (Cavia porcellus, UniProt Q2NNR5).
T1 construct: Guinea pig lung membranes, containing the LTD4 receptors, are purified; from tissue; host or cells: guinea-pig lung membranes
T1 sequence (Q2NNR5 1-340): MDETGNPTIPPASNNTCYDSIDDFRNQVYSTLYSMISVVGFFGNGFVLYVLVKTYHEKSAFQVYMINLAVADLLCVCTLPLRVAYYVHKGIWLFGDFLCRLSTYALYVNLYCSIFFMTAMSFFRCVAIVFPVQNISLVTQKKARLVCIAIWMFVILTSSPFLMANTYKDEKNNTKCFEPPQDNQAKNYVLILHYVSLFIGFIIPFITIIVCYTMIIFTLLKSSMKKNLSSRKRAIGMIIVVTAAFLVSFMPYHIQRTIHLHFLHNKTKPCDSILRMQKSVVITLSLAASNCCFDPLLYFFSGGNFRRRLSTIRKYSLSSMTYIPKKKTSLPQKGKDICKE
Nature of the assay: [^3 H]-LTD4 Receptor Binding Inhibition Test in Guinea-pig Lung Membranes. As to conditions: 0.5 nM [^3 H]-LTD4, 30 min at 25° C., pH 7.4, Cheng-Prusoff. As for the experimental part: The antagonistic activity on LTD4 of the compounds of the present invention is determined by means of an inhibition test of the [^3 H]-LTD4 receptor binding in guinea-pig lung membranes.
[^3 H]-LTD4 Receptor Binding Inhibition Test in Guinea-pig Lung Membranes
Guinea pig lung membranes, containing the LTD4 receptors, are purified following the method described by Mong and col. (Mong et al., Prostaglandins, 1984, 28. 805). These purified membranes (150 μg/ml) are added to an incubation mixture containing 10 mM of PIPES buffer (piperazine-N,N'-bis(2-ethanesulfonic acid) (pH 7.4), 10 mM CaCl2, 10 mM MgCl2, 2 mM cysteine, 2 mM glycine, 0.5 nM [^3 H]-LTD4 (4700-6400 GBq/mmol) and different concentrations of the product under test in a final volume of 310 μl. The reaction mixture is incubated for 30 minutes at 25° C.
The radioligand bound to the membranes is separated from the free one by dilution with 4 ml washing buffer (10 mM Tris-HCl (pH 7.4) and 100 mM NaCl) at 0° C. and filtration with Whatman GF/B filters, by means of a Brandel Cell Harvester. The filters are washed 4 times with a total volume of 16 ml of washing buffer at 0° C. The radioactivity present in the filters is determined by liquid scintillation.
The specific binding is defined as the difference between the total binding of [^3 H]-LTD4 and the non-specific binding determined in the presence of 1 μM LTD4. The data obtained in the competition tests are analyzed by a computational program, which determines the inhibition constant of each compound (Ki) by means of the Cheng-Prusoff equation (Cheng et al., Biochem. Pharmacol., 1973, 22, 3094).
wherein IC50 is the concentration of compound which displaces a 50% of the bound radioligand, [L] is the concentration of [^3 H]LTD4 free in the test and Kd is the dissociation constant of the LTD4 obtained in an independent way by means of Scatchard analysis.
As to `O=C(Nc1cc(F)cc2c(=O)cc(C(=O)O)oc12)c1ccc2c(c1)CC(CCCc1ccccc1)O2` (centres unmarked) [Example 14, 8-[2-(3-Phenylpropyl)-2,3-dihydrobenzofuran-5-carboxamido]-6-fluoro-4-oxo-4H-1-benzopyran-2-carboxylic acid], the inhibition constant Ki came out at 4.2 ± 1.1 nM.

`O=C(Nc1cccc2c(=O)cc(-c3nnn[nH]3)oc12)c1ccc2c(c1)CC(COCc1ccc(F)cc1)O2` (centres unmarked) [Example 12, N-[4-Oxo-2-(1H-5-tetrazolyl)-4H-1-benzopyran-8-yl]-2-(4'-fluorobenzyloxymethyl)-2,3-dihydrobenzofuran-5-carboxamide] had a Ki of 0.39 ± 0.1 nM.

The compound `O=C(O)c1cc(=O)c2cccc(NC(=O)c3ccc4c(c3Cl)CC(CCCc3ccccc3)O4)c2o1` (centres unmarked) [Example 15, 8-[4-Chloro-2-(3-phenylpropyl)-2,3-dihydrobenzofuran-5-carboxamido]-4-oxo-4H-1-benzopyran-2-carboxylic acid] registered a Ki of 102 ± 48 nM.

With `O=C(Nc1cccc2c(=O)cc(C(=O)O)oc12)c1ccc2oc(COCc3ccccc3)cc2c1` [Example 5, 8-[2-(Benzyloxymethyl)benzofuran-5-carboxamido]-4-oxo-4H-1-benzopyran-2-carboxylic acid], the Ki came to 24 ± 3 nM.

With `O=C(Nc1cccc2c(=O)cc(C(=O)O)oc12)c1ccc2c(c1)CC(CCCc1ccccc1)O2` (centres unmarked) [Example 8, 8-[2-(3-Phenylpropyl)-2,3-dihydrobenzofuran-5-carboxamido]-4-oxo-4H-1-benzopyran-2-carboxylic acid], affinity was put at a Ki of 1.73 ± 0.2 nM.

On to `O=C(Nc1cccc2c(=O)cc(C(=O)O)oc12)c1ccc2c(c1)CCC(COCc1ccccc1)O2` (centres unmarked) [Example 1, 8-[2-(Benzyloxymethyl)chromane-6-carboxamido]-4-oxo-4H-1-benzopyran-2-carboxylic acid], for which the affinity corresponds to a Ki of 145 ± 34 nM.

Regarding `O=C(Nc1cccc2c(=O)cc(-c3nnn[nH]3)oc12)c1ccc2c(c1)CC(COCc1ccccc1)O2` (centres unmarked) [Example 7, N-[4-Oxo-2-(1H-5-tetrazolyl)-4H-1-benzopyran-8-yl]-2-benzyloxymethyl-2,3-dihydrobenzofuran-5-carboxamide], the Ki worked out at 1.88 ± 0.2 nM.

In turn, `O=C(Nc1cccc2c(=O)cc(C(=O)O)oc12)c1ccc2c(c1)CC(CSCc1ccccc1)O2` (centres unmarked) [Example 10, 8-(2-Benzylthiomethyl-2,3-dihydrobenzofuran-5-carboxamido)-4-oxo-4H-1-benzopyran-2-carboxylic acid] came in with an inhibitory constant (Ki) of 9 ± 0.8 nM. Against the preceding compound, the Ki is about 4.8-fold higher.

Turning to `O=C(Nc1cccc2c(=O)cc(C(=O)O)oc12)c1ccc2c(c1)CCC(CCCc1ccccc1)O2` (centres unmarked) [Example 3, 8-[2-(3-Phenylpropyl)chromane-6-carboxamido]-4-oxo-4H-1-benzopyran-2-carboxylic acid], the affinity, expressed as Ki, was 5.6 ± 0.5 nM.

Regarding `O=c1cc(-c2nnn[nH]2)oc2c(/C=C/c3ccc(OCCCCc4ccccc4)cc3)cccc12` [Example 21, 8-[(E)-2-[4-(4-Phenylbutoxy)phenyl]ethen-1-yl]-4-oxo-2-(5-1H-tetrazolyl]-4H-1-benzopyran], the inhibitory constant (Ki) worked out at 0.5 ± 0.2 nM. This Ki is about 11-fold lower than that of the compound before.

`Cc1cn(CCCCc2ccccc2)c2ccc(C(=O)Nc3cccc4c(=O)cc(-c5nnn[nH]5)oc34)cc12` [Example 17, N-[4-Oxo-2-(1H-5-tetrazolyl)-4H-1-benzopyran-8-yl]-1-(4-phenylbutyl)-3-methylindole-5-carboxamide] returned a Ki of 1200 ± 440 nM.

`O=C(Nc1cccc2c(=O)cc(C(=O)O)oc12)c1cc(Cl)c2c(c1)CC(CCCc1ccccc1)O2` (centres unmarked) [Example 13, 8-[7-chloro-2-(3-phenylpropyl)-2,3-dihydrobenzofuran-5-carboxamido]-4-oxo-4H-1-benzopyran-2-carboxylic acid]: the Ki turned out to be 9.3 ± 3 nM. Against the preceding compound, the Ki is about 130-fold lower.

`O=C(O)c1cc(=O)c2cccc(/C=C/c3ccc(OCCCCc4ccc(F)cc4)cc3)c2o1` [Example 22, 8-[(E)-2-[4-[4-(4-Fluorophenyl)butoxy]phenyl]-ethen-1-yl]-4-oxo-4H-1-benzopyran-2-carboxylic acid] gave a Ki of 6 ± 3 nM.

Consider `O=C(Nc1cccc2c(=O)cc(C(=O)O)oc12)c1ccc2c(c1)CC(COCc1ccc(F)cc1)O2` (centres unmarked) [Example 11, 8-[2-(4'-Fluorobenzyloxymethyl)-2,3-dihydrobenzofuran-5-carboxamido]-4-oxo-4H-1-benzopyran-2-carboxylic acid], for which the Ki was determined as 1.9 ± 0.04 nM.

The compound `O=C(O)c1cc(=O)c2cccc(/C=C/c3ccc(OCCCCc4ccccc4)cc3)c2o1` [Example 20, 4-oxo-8-[(E)-2-[4-(4-phenylbutoxy)phenyl]ethen-1-yl]-4H-1-benzopyran-2-carboxylic acid] returned a Ki of 6.2 ± 1.3 nM. This Ki lies about 3.3-fold higher than the previous one.

`O=c1cc(-c2nnn[nH]2)oc2c(/C=C/c3ccc(OCCCCc4ccc(F)cc4)cc3)cccc12` [Example 23, 8-[(E)-2-[4-[4-(4-Fluorophenyl)butoxy]phenyl]ethen-1-yl]-4-oxo-2-(5-1H-tetrazolyl)-4H-1-benzopyran] showed a Ki of 0.39 ± 0.1 nM. This Ki lies about 16-fold lower than the previous one.

As to `O=C(Nc1cccc2c(=O)cc(C(=O)O)oc12)c1ccc2c(c1)CC(COCc1ccccc1)O2` (centres unmarked) [Example 6, 8-(2-Benzyloxymethyl-2,3-dihydrobenzofuran-5-carboxamido)-4-oxo-4H-1-benzopyran-2-carboxylic acid], the affinity, expressed as Ki, was 6 ± 2.1 nM.

`O=C(Nc1cccc2c(=O)cc(-c3nnn[nH]3)oc12)c1ccc2c(c1)CCC(CCCc1ccccc1)O2` (centres unmarked) [Example 4, N-[4-Oxo-2-(1H-5-tetrazolyl)-4H-1-benzopyran-8-yl]-2-(3-phenylpropyl)chromane-6-carboxamide] had an inhibitory constant (Ki) of 2.3 ± 0.2 nM.

`O=C(Nc1cccc2c(=O)cc(-c3nnn[nH]3)oc12)c1ccc2c(c1)CC(CCCc1ccccc1)O2` (centres unmarked) [Example 9, N-[4-Oxo-2-(1H-5-tetrazolyl)-4H-1-benzopyran-8-yl]-2-(3-phenylpropyl)-2,3-dihydrobenzofuran-5-carboxamide] came in with an inhibition constant (Ki) of 1.1 ± 0.2 nM.

`O=C(O)c1cc(=O)c2cccc(NC(=O)c3cc4c(cc3Cl)OC(CCCc3ccccc3)C4)c2o1` (centres unmarked) [Example 16, 8-[6-Chloro-2-(3-phenylpropyl)-2,3-dihydrobenzofuran-5-carboxamido]-4-oxo-4H-1-benzopyran-2-carboxylic acid]: affinity was put at a Ki of 169 ± 24 nM.

In turn, `O=c1cc(-c2nnn[nH]2)oc2c(/C=C/c3ccc4c(c3)CC(COCc3ccc(F)cc3)O4)cccc12` (centres unmarked) [Example 26, 8-[(E)-2-[2-(4'-fluorobenzyloxymethyl)-2,3-dihydrobenzofuran-5-yl]ethen-1-yl]-4-oxo-2-(5-1H-tetrazolyl)-4H-1-benzopyran] returned an inhibition constant (Ki) of 0.46 ± 0.1 nM. This Ki is about 370-fold lower than that of the compound before.

The compound `O=C(O)c1cc(=O)c2cccc(OCc3ccc(OCCCCc4ccccc4)cc3)c2o1` [Example 18, 8-[[4-(4-phenylbutoxy)phenyl]methyloxy]-4-oxo-4H-1-benzopyran-2-carboxylic acid] yielded a Ki of 174 ± 43 nM.

Turning to `O=C(O)c1cc(=O)c2cccc(/C=C/c3ccc(OCCCCc4ccccc4)cc3F)c2o1` [Example 24, 8-[(E)-2-[4-(4-Phenylbutoxy)-2-fluorophenyl]ethen-1-yl]-4-oxo-4H-1-benzopyran-2-carboxylic acid], affinity was put at a Ki of 22.3 ± 0.1 nM. Against the preceding compound, the Ki is about 7.8-fold lower.

For `O=C(Nc1cccc2c(=O)cc(-c3nnn[nH]3)oc12)c1ccc2c(c1)CCC(COCc1ccccc1)O2` (centres unmarked) [Example 2, N-[4-Oxo-2-(1H-5-tetrazolyl)-4H-1-benzopyran-8-yl]-2-(benzyloxymethyl)chromane-6-carboxamide], the Ki was found to be 12 ± 4 nM.

On to `O=C(O)c1cc(=O)c2cccc(NS(=O)(=O)c3ccc(OCCCCc4ccccc4)cc3)c2o1` [Example 19, 8-[[4-(4-Phenylbutoxy)phenyl]sulfonylamino]-4-oxo-4H-1-benzopyran-2-carboxylic acid], for which affinity was put at a Ki of 6 ± 1 nM.

Consider `O=C(O)c1cc(=O)c2cccc(/C=C/c3ccc4c(c3)CC(COCc3ccc(F)cc3)O4)c2o1` (centres unmarked) [Example 25, 8-[(E)-2-[2-(4'-Fluorobenzyloxymethyl)-2,3-dihydrobenzofuran-5-yl]ethen-1-yl]-4-oxo-4H-1-benzopyran-2-carboxylic acid], for which the Ki was found to be 1.25 ± 0.3 nM.

Source of the values: patent US5990142A, “Benzopyran derivatives having leukotriene-antagonistic action” (Laboratorios Menarini S.A., priority 1996, dated 1999).
